{"source": "patent US12472213B2", "about": "“Strains of Lactobacillus delbrueckii which inhibit Porphyromonas gingivalis” (Trustees of Tufts College, priority 2019, dated 2025)", "key": {"[1]": {"tested_on": "Lactobacillus delbrueckii STYM1 strain pyruvate oxidase (L. delbrueckii Pox, LDBND_1487), wild type, full-length", "assay": "Phospholipid activation assay of L. delbrueckii Pox", "format": "biochemical", "settings": "various concentrations; 16:0-18:1 acyl chains", "protocol": "(§1) Pyruvate oxidase enzyme or pyruvate:oxygen 2-oxidoreductase (phosphorylating) (EC 1.2.3.3) was derived from Lactobacillus delbrueckii STYM1 strain (16).\nPyruvate oxidase activity was measured as previously described (16). Briefly, 50 mM sodium pyruvate, 15 μM FAD, 300 μM TPP, 0.03% N-ethyl-N-(2-hydroxy-3-sulfopropyl)-m-toluidine (sigma), 0.015% 4-aminoantipyrine (sigma), and 33 μg/mL horseradish peroxidase (Sigma) were combined with purified pox enzyme. After a 10-minute incubation at room temperature, sodium phosphate pH 5.6 was added to 50 mM final concentration to initiate the reaction. The formation of a quinoneimine dye at 25° C. was measured by an increase in absorbance at 550 nm and the specific activity was calculated as described. 1 unit of Pox activity is defined as the production of 1 μmol of hydrogen peroxide per minute and this was converted to μM/min for kinetic analysis.\nPhosphotidylethanolamine (16:0-18:1) (Avanti Lipids), Phosphotidylcholine (16:0-18:1) (Avanti Lipids), and Phosphotidylglycerol (16:0-18:1) (Avanti Lipids) dissolved in chloroform were evaporated under a steady stream of argon gas and dried in a vacuum desiccator for 1 hour to evaporate residual chloroform. The phospholipids were resuspended in 20 mM Bis-Tris 150 mM NaCl pH 6 and incubated at 37° C. with shaking at 225 rpm for 30 minutes. The suspension was vortexed for 30 seconds and vortexed immediately prior to each use.\n(§2) Phospholipids were added to the pyruvate oxidase assay mixture at various concentrations and enzyme activity was measured as described above. Fold activity was calculated relative to enzyme activity without phospholipid."}, "[2]": {"tested_on": "Lactobacillus delbrueckii STYM1 strain pyruvate oxidase (L. delbrueckii Pox, LDBND_1487), wild type", "assay": "PE co-sedimentation", "format": "binding", "settings": "1 mM PE, 50 mM pyruvate, 300 μM TPP, 15 μM FAD, 30 minutes at room temperature", "protocol": "as §1\nPE was prepared as described above for activation experiments. 3 μg of L. delbrueckii Pox was incubated with 50 mM pyruvate, 300 μM TPP, and 15 μM FAD with either 1 mM PE or no PE for 30 minutes at room temperature. The PE fraction was precipitated by centrifugation at 16,000×g for 20 minutes at 4° C. The supernatant was aspirated as the soluble fraction and the PE pellet was resuspened in an equal amount of buffer. The fractions were visualized by Coomassie staining after SDS-PAGE."}, "[3]": {"tested_on": "Lactobacillus delbrueckii STYM1 strain pyruvate oxidase (L. delbrueckii Pox, LDBND_1487), wild type, C-terminal His6", "assay": "Pyruvate oxidase activity assay and kinetic parameters (oxidative coupling, H2O2 production, A550)", "format": "biochemical", "settings": "for Km: 25° C.", "protocol": "The C-terminal primer encoded a glycine-serine linker followed by a 6-histidine tag and a stop codon. The PCR product was ligated into the pFLAG-CTC vector (Sigma) using the NdeI and XhoI restriction sites and transformed into DH5α E. coli resulting in the plasmid pFLAG-CTC_Pox. The construct was confirmed by PCR and sequencing. pFLAG-CTC_Pox was transformed into LOBSTR E. coli in which Pox was expressed as a C-terminal His6-Pox. A 6 mL starter culture was incubate at 37° C. overnight in LB supplemented with 100 μg/mL of ampicillin. The starter culture was diluted 1:100 into 40 mL of LB supplemented with 100 μg/mL of ampicillin and grown at 37° C. until the OD600 reached 0.4-0.8. The temperature was then shifted to 26° C. and the cells were incubated with 1 mM isopropyl-β-D-thiogalactopyranoside (IPTG) for 20 hours. The cells were harvested by centrifugation at 3,200×g for 10 minutes, resuspended in 1 mL PBS EDTA-free cOmplete protease inhibitor cocktail (Roche), and lysed by sonication on ice, as described above. […] Protein purity was assessed by SDS-PAGE and Coomassie staining.\nPyruvate oxidase activity of recombinant Pox was assessed by an oxidative coupling reaction. […] Immediately upon addition of purified Pox, the formation of a quinoneimine dye was measured by an increase in the absorbance at 550 nm which was recorded every 30 seconds at room temperature. […] Pox activity is assessed by determining the change in absorbance at 550 nm per minute. […] Activity was determined according to the following equation: specific activity=[(ΔA550/min)(dilution factor)(total reaction volume)]/[(36.88)(0.5)(path length)(sample volume)(C)], where the total reaction volume is 1 ml, the millimolar extinction coefficient of quinoneimine dye is 36.88, the factor of 0.5 was determined based on the fact that 1 mol of hydrogen peroxide produces 0.5 mol of quinoneimine dye, the light path length is 1 cm, the sample volume is 0.1 ml, and C is the concentration of undiluted enzyme in mg/ml. […]\nPyruvate oxidase activity was measured as previously described (16). […]"}, "[4]": {"tested_on": "Lactobacillus delbrueckii STYM1 pyruvate oxidase variant Δ32 (C-terminal truncation lacking the last 32 amino acids)", "assay": "Phospholipid activation assay of L. delbrueckii Pox Δ32", "format": "biochemical", "settings": "various PE concentrations", "source_text": "The C-terminus of E. coli Pox is important for lipid activation of the enzyme (13). To test if the C-terminus was important in the L. delbrueckii Pox, a C-terminal truncation was generated that lacked the last 32 amino acids. The enzyme was purified and tested for its ability to be activated by PE (FIG. 18A). […] This is consistent with the E. coli pox truncation having greater activity partially mimicking lipid activation (20). Furthermore, the Δ32 enzyme was only weakly activated by PE to approximately 2-fold greater than the enzyme without PE compared to an approximately 6-fold activation with the full-length enzyme (FIG. 15B and FIG. 18C).\nThe PCR product was ligated into the pFLAG-CTC vector (Sigma, St. Louis, MO) using the NdeI and XhoI restriction sites. […] The construct was transformed into LOBSTR E. coli, in which the L. delbrueckii Δ32 Pox was expressed as a C-terminal His6-Pox. […] Protein purity was assessed by SDS-PAGE and Coomassie staining.\nPyruvate oxidase activity was measured as previously described (16). […] The formation of a quinoneimine dye at 25° C. was measured by an increase in absorbance at 550 nm and the specific activity was calculated as described. […]\nas §2"}}, "note": "Where two headings read alike, the source gives them in different places."}
{"molecule": "CCCCCCCC/C=C\\CCCCCCCC(=O)O[C@H](COC(=O)CCCCCCCCCCCCCCC)COP(=O)([O-])OCC[N+](C)(C)C", "note": "[PC, Phosphotidylcholine (16:0-18:1)]", "values": [{"measurement": "catalytic activation by phospholipid (in words)", "setting": "[1]", "result": "not PC or PG"}]}
{"molecule": "CCCCCCCC/C=C\\CCCCCCCC(=O)O[C@H](COC(=O)CCCCCCCCCCCCCCC)COP(=O)(O)OCCN", "note": "[PE, Phosphotidylethanolamine (16:0-18:1)]", "values": [{"measurement": "co-precipitation with PE", "setting": "[2]", "result": "did not co-precipitate with PE"}, {"measurement": "increase in kcat relative to the enzyme in the absence of PE", "setting": "[3]; 7.2 mM PE vs no PE", "result": "approximately 18 fold"}, {"measurement": "catalytic activation by phospholipid (in words)", "setting": "[1]", "result": "catalytically activated specifically by PE"}, {"measurement": "fold activity relative to the enzyme without PE", "setting": "[4]", "result": "approximately 2 fold"}]}
{"molecule": "CCCCCCCC/C=C\\CCCCCCCC(=O)O[C@H](COC(=O)CCCCCCCCCCCCCCC)COP(=O)(O)OCC(O)CO", "note": "(some centres unmarked) [PG, Phosphotidylglycerol (16:0-18:1)]", "values": [{"measurement": "catalytic activation by phospholipid (in words)", "setting": "[1]", "result": "not PC or PG"}]}
{"molecule": "phosphate", "values": [{"measurement": "Km", "setting": "[3]; with 7.2 mM PE, 170 nM enzyme, read-out: km for phosphate (with PE)", "result": 1.25, "unit": "mM"}, {"measurement": "Km", "setting": "[3]; without PE, 1.76 μM enzyme, pyruvate 50 mM, pH 5.6, read-out: km for phosphate", "result": 8, "unit": "mM"}]}
